We go through 15 molecules from patent US20230131899A1, “INHIBITORS OF MICROBIALLY INDUCED AMYLOID” (Axial Therapeutics, Inc., priority 2020, published 2023).

Read-outs that look alike come from different tables or passages of the source.

The target of this assay is T1, E. coli CsgA (Escherichia coli, UniProt P28307).
T1 construct: made in house; host or cells: E. coli NEB 3016 slyD::kan, pET11d
As to the kind of experiment: In vitro ThioflavinT assay of CsgA aggregation (CsgA ThT Assay). The class given is biochemical. The note with it: for remaining activity at 25 µM: compound 25 μM; for remaining activity at 100 µM: compound 100 μM. The method in brief:
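Purified C-terminal His-tagged CsgA, monomerised by desalting and 30-kDa filtration, at 2-20 μM with 20-40 μM ThT in 50 mM potassium phosphate pH 7.3, 1% DMSO, compounds 3.125-200 uM; room temperature, fluorescence (ex 438/em 495 nm) read every 15 min. Background-subtracted signal expressed as percent inhibition versus vehicle at 6-6.5 or 8-9 h, or as percent control AUC.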

[1] abbreviates: read-out: CsgA ThT Assay (10 μM CsgA) % Control AUC at 1005 minutes, 25 μM (activity range), CsgA 10 μM, black plates, 1005 minutes, class symbol.
Where [2] appears, read: read-out: CsgA ThT Assay (10 μM CsgA) % Control AUC at 1005 minutes, 25 μM, mean AUC as % of DMSO control, CsgA 10 μM, black plates, 1005 minutes.
[3] abbreviates: read-out: CsgA ThT Assay (10 μM CsgA) % Control AUC at 1005 minutes, 100 μM (activity range), CsgA 10 μM, black plates, 1005 minutes, class symbol.
The mark [4] stands for this setting: read-out: CsgA ThT Assay (10 μM CsgA) % Control AUC at 1005 minutes, 100 μM, mean AUC as % of DMSO control, CsgA 10 μM, black plates, 1005 minutes.
[5] abbreviates: read-out: CsgA ThT Assay (2 μM CsgA) % Control Bmax 25 μM, activity range, class symbol, CsgA 2 μM, white plates.
[6] abbreviates: read-out: CsgA ThT Assay (2 μM CsgA) % Control Bmax 25 μM, mean Bmax as percentage of DMSO control, CsgA 2 μM, white plates.
The mark [7] stands for this setting: read-out: CsgA ThT Assay (2 μM CsgA) % Control Bmax 100 μM, activity range, class symbol, CsgA 2 μM, white plates.
[8] abbreviates: read-out: CsgA ThT Assay (2 μM CsgA) % Control Bmax 100 μM, mean Bmax as percentage of DMSO control, CsgA 2 μM, white plates.

T1 sequence (P28307 23-151): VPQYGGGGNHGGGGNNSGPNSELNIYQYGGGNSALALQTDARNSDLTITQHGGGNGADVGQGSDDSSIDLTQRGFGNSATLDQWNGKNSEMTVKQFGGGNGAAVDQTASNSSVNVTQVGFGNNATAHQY

As for `O=C(O)c1c(CCc2ccccc2)sc2c(-c3cccc(C(F)(F)F)c3)c(Cc3cccc4ccccc34)cc(=O)n12` [Compound 062, 7-(naphthalen-1-ylmethyl)-5-oxo-2-phenethyl-8-(3-(trifluoromethyl)phenyl)-5H-thiazolo[3,2-a]pyridine-3-carboxylic acid], the remaining activity at 25 µM by setting is: under setting [1], above 60%; under setting [2], 77%. In addition, the remaining activity at 100 µM reads like this: under setting [3], above 60%; under setting [4], 97%.

With `CNC(=O)CCCN1CC(C(=O)O)n2c(c(-c3cccc(C(F)(F)F)c3)c(Cc3cccc4ccccc34)cc2=O)S1(=O)=O` (stereo not drawn) [Compound 037, 2-(4-(methylamino)-4-oxobutyl)-8-(naphthalen-1-ylmethyl)-6-oxo-9-(3-(trifluoromethyl)phenyl)-3,4-dihydro-2H,6H-pyrido[1,2-e][1,2,5]thiadiazine-4-carboxylic acid 1,1-dioxide], the remaining activity at 25 µM was above 60% under setting [1] and 71% under setting [2]. In addition, the remaining activity at 100 µM is 31 to 60% under setting [3] and 53% under setting [4].

`O=C(O)C1CN(Cc2ccccc2)c2c(-c3cccc(C(F)(F)F)c3)c(Cc3cccc4ccccc34)c(Cl)c(=O)n21` (stereo not drawn) [Compound 004, 1-benzyl-6-chloro-7-(naphthalen-1-ylmethyl)-5-oxo-8-(3-(trifluoromethyl)phenyl)-1,2,3,5-tetrahydroimidazo[1,2-a]pyridine-3-carboxylic acid]: the remaining activity at 25 µM is, setting by setting: under setting [5], 31 to 60%; under setting [6], 57%. The remaining activity at 100 µM is 11 to 31% under setting [7] and 26% under setting [8].

In the case of `O=C(O)C1CN(Cc2ccccc2CO)c2c(-c3cccc(C(F)(F)F)c3)c(Cc3cccc4ccccc34)c(Cl)c(=O)n21` (stereo not drawn) [Compound 181, 6-chloro-1-(2-(hydroxymethyl)benzyl)-7-(naphthalen-1-ylmethyl)-5-oxo-8-(3-(trifluoromethyl)phenyl)-1,2,3,5-tetrahydroimidazo[1,2-a]pyridine-3-carboxylic acid], the remaining activity at 25 µM under setting [5] lay in the range of 31 to 60% and the remaining activity at 25 µM under setting [6] is 57%. The remaining activity at 100 µM was 31 to 60% under setting [7] and 40% under setting [8].

Turning to `O=C(O)C1CSc2c(-c3cccc(C(F)(F)F)c3)c(C(F)(F)c3cccc4ccccc34)cc(=O)n21` (stereo not drawn) [Compound 073, 7-(difluoro(naphthalen-1-yl)methyl)-5-oxo-8-(3-(trifluoromethyl)phenyl)-2,3-dihydro-5H-thiazolo[3,2-a]pyridine-3-carboxylic acid], the remaining activity at 25 µM was 11 to 31% under setting [1] and 27% under setting [2]. Besides, the remaining activity at 100 µM by setting is: under setting [3], above 60%; under setting [4], 97%.

For `O=C(O)C1CN(Cc2cccnc2)c2c(-c3cccc(C(F)(F)F)c3)c(Cc3cccc4ccccc34)c(Cl)c(=O)n21` (stereo not drawn) [Compound 169, 6-chloro-7-(naphthalen-1-ylmethyl)-5-oxo-1-(pyridin-3-ylmethyl)-8-(3-(trifluoromethyl)phenyl)-1,2,3,5-tetrahydroimidazo[1,2-a]pyridine-3-carboxylic acid], the remaining activity at 25 µM is above 60% under setting [5] and 77% under setting [6]. For the same molecule, the remaining activity at 100 µM was above 60% under setting [7] and 64% under setting [8].

For the molecule `CCCNC(=O)c1c(Cc2cccc3ccccc23)c(-c2cccc(C(F)(F)F)c2)c2n(c1=O)C(C(=O)O)CN(C)S2(=O)=O` (stereo not drawn) [Compound 154, 2-methyl-8-(naphthalen-1-ylmethyl)-6-oxo-7-(propylcarbamoyl)-9-(3-(trifluoromethyl)phenyl)-3,4-dihydro-2H,6H-pyrido[1,2-e][1,2,5]thiadiazine-4-carboxylic acid 1,1-dioxide], the remaining activity at 25 µM was above 60% under setting [5] and 92% under setting [6]. The remaining activity at 100 µM is above 60% under setting [7] and 63% under setting [8].

Take `CC(C)CN1CC(C(=O)O)n2c1c(-c1cccc(C(F)(F)F)c1)c(Cc1cccc3ccccc13)c(Cl)c2=O` (stereo not drawn) [Compound 164, 6-chloro-1-isobutyl-7-(naphthalen-1-ylmethyl)-5-oxo-8-(3-(trifluoromethyl)phenyl)-1,2,3,5-tetrahydroimidazo[1,2-a]pyridine-3-carboxylic acid]: the remaining activity at 25 µM reads like this: under setting [5], 31 to 60%; under setting [6], 52%. Further, the remaining activity at 100 µM under setting [7] lay in the range of 31 to 60% and the remaining activity at 100 µM under setting [8] turned out to be 42%.

As for `O=C(O)C1CN(CCCCCO)c2c(-c3cccc(C(F)(F)F)c3)c(Cc3cccc4ccccc34)c(Cl)c(=O)n21` (stereo not drawn) [Compound 199, 6-chloro-1-(5-hydroxypentyl)-7-(naphthalen-1-ylmethyl)-5-oxo-8-(3-(trifluoromethyl)phenyl)-1,2,3,5-tetrahydroimidazo[1,2-a]pyridine-3-carboxylic acid], the remaining activity at 25 µM is, setting by setting: under setting [5], above 60%; under setting [6], 83%. Further, the remaining activity at 100 µM is above 60% under setting [7] and 99% under setting [8].

In the case of `O=C(O)C1CN(CCCO)c2c(-c3cccc(C(F)(F)F)c3)c(Cc3cccc4ccccc34)c(Cl)c(=O)n21` (stereo not drawn) [Compound 197, 6-chloro-1-(3-hydroxypropyl)-7-(naphthalen-1-ylmethyl)-5-oxo-8-(3-(trifluoromethyl)phenyl)-1,2,3,5-tetrahydroimidazo[1,2-a]pyridine-3-carboxylic acid], the remaining activity at 25 µM under setting [5] was above 60% and the remaining activity at 25 µM under setting [6] was 86%. The remaining activity at 100 µM under setting [7] was above 60% and the remaining activity at 100 µM under setting [8] was determined as 64%.

As for `O=C(O)C1COc2c(-c3cccc(C(F)(F)F)c3)c(Cc3cccc4ccccc34)cc(=O)n21` (stereo not drawn) [Compound 064, 7-(naphthalen-1-ylmethyl)-5-oxo-8-(3-(trifluoromethyl)phenyl)-2,3-dihydro-5H-oxazolo[3,2-a]pyridine-3-carboxylic acid], the remaining activity at 25 µM was 31 to 60% under setting [1] and 45% under setting [2]. Further, the remaining activity at 100 µM is, setting by setting: under setting [3], 11 to 31%; under setting [4], 16%.

For `O=C(O)C1CN(CCCCCCCN2CC(C(=O)O)n3c2c(-c2cccc(C(F)(F)F)c2)c(Cc2cccc4ccccc24)c(Cl)c3=O)c2c(-c3cccc(C(F)(F)F)c3)c(Cc3cccc4ccccc34)c(Cl)c(=O)n21` (stereo not drawn) [Compound 188, 1,1′-(heptane-1,7-diyl)bis(6-chloro-7-(naphthalen-1-ylmethyl)-5-oxo-8-(3-(trifluoromethyl)phenyl)-1,2,3,5-tetrahydroimidazo[1,2-a]pyridine-3-carboxylic acid)], the remaining activity at 25 µM by setting is: under setting [5], 31 to 60%; under setting [6], 33%. The remaining activity at 100 µM under setting [7] lay within 11 to 31% and the remaining activity at 100 µM under setting [8] was 14%.

Turning to `O=C(O)C1CN(CCC2CCCCC2)c2c(-c3cccc(C(F)(F)F)c3)c(Cc3cccc4ccccc34)c(Cl)c(=O)n21` (stereo not drawn) [Compound 207, 6-chloro-1-(2-cyclohexylethyl)-7-(naphthalen-1-ylmethyl)-5-oxo-8-(3-(trifluoromethyl)phenyl)-1,2,3,5-tetrahydroimidazo[1,2-a]pyridine-3-carboxylic acid], the remaining activity at 25 µM was 31 to 60% under setting [5] and 51% under setting [6]. Moreover, the remaining activity at 100 µM is 11 to 31% under setting [7] and 20% under setting [8].

Consider `O=C(O)C1CN(Cc2ccccc2)c2c(-c3cccc(C(F)(F)F)c3)c(Cc3cccc4ccccc34)c(F)c(=O)n21` (stereo not drawn) [Compound 194, 1-benzyl-6-fluoro-7-(naphthalen-1-ylmethyl)-5-oxo-8-(3-(trifluoromethyl)phenyl)-1,2,3,5-tetrahydroimidazo[1,2-a]pyridine-3-carboxylic acid], for which the remaining activity at 25 µM is, setting by setting: under setting [5], above 60%; under setting [6], 100%. Moreover, the remaining activity at 100 µM under setting [7] is above 60% and the remaining activity at 100 µM under setting [8] turned out to be 67%.

Consider `CC(C)N1CC(C(=O)O)n2c(c(-c3cccc(C(F)(F)F)c3)c(Cc3cccc4ccccc34)c(C(N)=O)c2=O)S1(=O)=O` (stereo not drawn) [Compound 175, 7-carbamoyl-2-isopropyl-8-(naphthalen-1-ylmethyl)-6-oxo-9-(3-(trifluoromethyl)phenyl)-3,4-dihydro-2H,6H-pyrido[1,2-e][1,2,5]thiadiazine-4-carboxylic acid 1,1-dioxide], for which the remaining activity at 25 µM runs as follows: under setting [5], 31 to 60%; under setting [6], 33%. Moreover, the remaining activity at 100 µM by setting is: under setting [7], 11 to 31%; under setting [8], 24%.
